The data set can be described thus: of the first substance listed, at infinite dilution; xn = mol fraction of the nth substance listed. The following applies: 298.15 K; 100 kPa; Liquid; isoperibol calorimeter; x1 = 0.

SMILES strings stand for the structures. Numbers after ± are expanded uncertainties.

As to `CCCCOCCCN` [3-butoxy-1-propanamine] + O, the partial molar enthalpy is -7.294 ± 0.0574 kcal/mol.
Next, `CCOCCCN` [3-ethoxy-1-propanamine] + O: -6.582 ± 0.0526 kcal/mol.
